Measured values reported in US11167012B2, “Peptide inhibition of CCR3-mediated diseases or conditions” (The Board of Trustees of the University of Illinois, priority 2015, dated 2021).
Entries after “also recorded” stand apart in the source; their conditions may differ. Where a SMILES comes first, the peptide text is derived from it. The star is where a group is joined. X1 = NC(=O)CCOCCOCCOCCOCCOCCOCCOCCOCCOCCOCCOCCOCCOCCOCCOCCOCCOCCOCCOCCOCCOCCOCCOCCOCCOCCOCCOCCOCCN*

Assays:
[1] = test system: eosinophil recruitment into the esophageal epithelium; experiment: Mouse model of EoE, oxazalone-challenged L2-IL5 transgenic mice; type: in vivo; conditions: i.v., 24 hours after last OXA challenge
Description: Skin sensitized L2-IL5 transgenic mice received topical esophageal oxazalone (OXA) challenges by gavage (i.e.) on days 5, 8 and 12 (FIG. 5A). R3-2-1 peptide nanoparticles, control peptide (R3-2-3) or CCR3 inhibitor UCB35625 (UCB) were given immediately before on days 5, 8, 10 and 12 (FIG. 5A). Esophageal eosinophilia was assessed 24 hours after the last OXA challenge and treatment (day 13). […] Error bars represent SEM.
Mice were treated i.v. with R3-2-1 peptide, scrambled R3-2-3 control peptide ([…]-PEG27-NH2; SEQ ID NO:24), or the allosteric non-selective CCR3 inhibitor, UCB35625. Eosinophil recruitment into the esophageal epithelium was assessed 24 hours after the last OXA challenge by counting eosinophils in 9 high power fields (hpf) covering the total esophagus or 3 hpf covering the distal esophagus.

CCR3 [2] = molecular target: T1, CCR3 (Homo sapiens, UniProt P51677); experiment: CCR3 degradation in cycloheximide-treated AML14.3D10-CCR3 cells, immunoblot; type: cell-based; set-up: host or cells: AML14.3D10-CCR3 (eosinophilic myelocytic cell line, kept under G418); conditions: 10 μM, 8 nM eotaxin or RANTES for 3 hours
T1 sequence (P51677 1-355): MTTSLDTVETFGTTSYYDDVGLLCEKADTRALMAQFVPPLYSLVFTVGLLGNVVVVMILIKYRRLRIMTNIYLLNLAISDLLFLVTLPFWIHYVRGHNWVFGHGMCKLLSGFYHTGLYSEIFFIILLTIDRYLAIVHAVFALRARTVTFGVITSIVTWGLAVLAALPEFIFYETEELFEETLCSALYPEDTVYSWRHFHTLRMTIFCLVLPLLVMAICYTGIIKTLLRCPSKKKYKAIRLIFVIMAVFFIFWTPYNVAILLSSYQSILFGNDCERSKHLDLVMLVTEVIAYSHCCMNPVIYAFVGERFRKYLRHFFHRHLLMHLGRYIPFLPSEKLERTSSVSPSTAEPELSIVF
Description: AML14.3D10-CCR3 cells were resuspended in RPMI-1640+0.1% BSA. Aliquots of 1×10^6 cells were pretreated with 10 μM cycloheximide for 1 hour at 37° C. Some cells were concurrently pretreated with 10 μM R3-2-1, 10 μM MG132, or both for 30 minutes. Pretreated cells were stimulated with 8 nM eotaxin or RANTES for 3 hours to induce receptor degradation. An aliquot of untreated cells were reserved at the start of the experiment to establish baseline CCR3 expression. All cells were then lysed in RIPA buffer and immunoblotted for CCR3 with a polyclonal rabbit anti-CCR3 antibody (Abcam) followed by goat anti-rabbit IgG-HRP secondary antibody (Santa Cruz).

CCR3 [3] = molecular target: T1, CCR3; experiment: NMR (13C HSQC) evaluation of binding to CCR3 membrane preparations; set-up: expressed in transfected cells; host or cells: 4DE4 mouse pre-B cell lymphoma line; conditions: 10 μM R321, 1 μM CCL11, CCR3 membrane preps 0.25 mg/ml
Description: FIG. 6A to FIG. 6E show NMR evaluation of the binding of R3-2-1 and CCL11/eotaxin-1 to CCR3 membrane preparations. ^13C HSQC spectra of ^13C-reductively methylated CCR3 membrane preps (0.25 mg/ml) were recorded with 1 μM CCL11 and 10 μM R321. […] Black arrows indicate the differences in chemical shifts.
Ligand binding to GPCR induces conformational transitions in the receptor that activate G-proteins and β-arrestin recruitment. […] Because R3-2-1 is an analog of the second transmembrane helix of CCR3, it is expected that R3-2-1 competes with the native helix 2 for binding to helices 1 and 3. Binding to helix 3 may disrupt the structure and orientation of the DRY motif in intracellular loop 2, inhibiting G-proteins.

CCR3 [4] = molecular target: T1, CCR3; experiment: CCR3 surface expression and internalization by flow cytometry, AML14.3D10-CCR3 cells; type: cell-based; set-up: host or cells: AML14.3D10-CCR3 (eosinophilic myelocytic cell line, kept under G418)
Description: Error bars represent SEM. *p<0.05, compared to untreated cells; n=3.
To assess surface expression of CCR3, cells were stained using PE-conjugated anti-human CCR3 antibody (clone 5E8, BioLegend) or PE-conjugated isotype-matched control after blocking with 10% human AB serum. To determine ligand-induced CCR3 internalization, cells were incubated with various chemokines for 1 hour at 37° C., washed once in staining buffer (PBS+0.5% BSA+0.1% NaN3) before being stained as above. After antibody staining, cells were fixed in 2% paraformaldehyde and analyzed on a QUANTA SC flow cytometer (Beckman Coulter, Indianapolis, Ind.).

CC[C@H](C)[C@H](NC(=O)[C@H](Cc1c[nH]c2ccccc12)NC(=O)[C@H](Cc1ccccc1)NC(=O)[C@@H]1CCCN1C(=O)[C@H](CC(C)C)NC(=O)[C@@H](NC(=O)[C@@H](NC(=O)[C@H](CC(C)C)NC(=O)[C@H](Cc1ccccc1)NC(=O)[C@H](CC(C)C)NC(=O)[C@@H](N)CC(C)C)C(C)C)[C@@H](C)O)C(=O)N[C@@H](Cc1c[nH]cn1)C(=O)N[C@@H](Cc1ccc(O)cc1)C(=O)N[C@H](C(=O)N[C@@H](CCCNC(=N)N)C(=O)NCC(=O)N[C@@H](Cc1c[nH]cn1)C(=O)N[C@@H](CC(N)=O)C(=O)N[C@@H](Cc1c[nH]c2ccccc12)C(=O)N[C@H](C(=O)N[C@@H](Cc1ccccc1)C(=O)NCC(=O)N[C@@H](Cc1c[nH]cn1)C(=O)N[C@@H](CC(=O)O)C(=O)N[C@@H](CC(=O)O)C(=O)N[C@@H](CC(=O)O)C(=O)NCCOCCOCCOCCOCCOCCOCCOCCOCCOCCOCCOCCOCCOCCOCCOCCOCCOCCOCCOCCOCCOCCOCCOCCOCCOCCOCCOCCOCCC(N)=O)C(C)C)C(C)C [Peptide R3-2-1] (H-LLFLVTLPFWIHYVRGHNWVFGHDDD-X1; N-terminus assumed) was tested, and the “eosinophil recruitment into distal and total esophageal epithelium” value [1] was “significantly blocked eosinophil recruitment; also recorded: significantly reduced eosinophil recruitment”, the “CCR3 degradation induced by eotaxin and RANTES” value (CCR3 [2]) was “enhanced CCR3 degradation induced by eotaxin and RANTES” and the “binding to CCR3 by NMR chemical shift changes” value (CCR3 [3]) was “chemical shift changes indicative of binding”. The “CCR3 internalization or surface accumulation on prolonged treatment” value (CCR3 [4]; 1 μM for 24, 48 or 72 hour, with or without CCL11 (12 nM)) was “promotes CCR3 internalization”, the CCL11-induced receptor internalization (CCR3 [4]; 1 μM, added concurrently with 12 nM CCL11) was “neither R3-2-1 (1 μM) nor R3-2-3 (1 μM) interfere with CCL11-induced receptor internalization” and the “CCL11-induced CCR3 endocytosis” value (CCR3 [4]; 2 or 10 μM) was “does not inhibit CCL11-induced CCR3 endocytosis”. For the same compound, the “surface CCR3 expression in the absence of CCR3 ligand” value (CCR3 [4]; AML14.3D10-CCR3 cells, significant at 1 μM) was “significantly decreases surface CCR3 expression”.
